Measurements as given in patent US5952382A, “Adamantyl-substituted retinoids and pharmaceutical/cosmetic compositions comprised thereof” (Centre International De Recherches Dermatologiques Galderma, priority 1995, dated 1999).
Read-outs that look alike come from different tables or passages of the source.

Experiments:
[1] = test system: embryonic teratocarcinoma F9 cells; assay: Test of differentiation of embryonic teratocarcinoma F9 cells, antagonism of an agonist retinoid (secretion of the activator of plasminogen, morphology); format: cell-based, mice; conditions: inhibition by 50% of effect of agonist compound A (10 nM) on secretion of the activator of plasminogen, 3 days incubation, read-out: Antagonist against compound A (10 nM) Test of differentiation of F9 cells IC50
[2] = test system: embryonic teratocarcinoma F9 cells; conditions: prior art; cited from earlier work

Molecule | IC50 ([1]; Mus musculus, F9, 72 h) [nM] | further results
O=C(O)c1ccc(-c2ccc3cc(OCc4ccccc4)c(C45CC6CC(CC(C6)C4)C5)cc3c2)cc1O [Example 1, 2-hydroxy-4-[7-(1-adamantyl)-6-benzyloxy-2-naphthyl]benzoic acid] | 5 | 
O=C(O)c1ccc(-c2ccc3cc(OCCCCCCCCO)c(C45CC6CC(CC(C6)C4)C5)cc3c2)cc1 [Example 14, 4-[7-(1-adamantyl)-6-hydroxyoctyloxy-2-naphthyl]benzoic acid] | 250 | 
O=C(O)c1ccc(-c2ccc3cc(OCc4ccccc4)c(C45CC6CC(CC(C6)C4)C5)cc3c2)cc1 [Example 5, 4-[7-(1-adamantyl)-6-benzyloxy-2-naphthyl]benzoic acid] | 180 | 
O=C(O)c1ccc(-c2ccc3cc(C(=O)OCc4ccccc4)c(C45CC6CC(CC(C6)C4)C5)cc3c2)cc1 [Example 6, 4-[7-(1-adamantyl)-6-benzyloxycarbonyl-2-naphthyl]benzoic acid] | 500 | 
CC1=C(/C=C/C(C)=C/C=C/C(C)=C/C(=O)O)C(C)(C)CCC1 [retinoic acid] |  | induction of differentiation of embryonic teratocarcinoma cells (F9) in mice [2]: capable of inducing differentiation
4-[7-(1-adamantyl)-6-carbonylpentyloxy-2-naphthyl]benzoic acid [Example 20] |  | IC50 [1]: 100 nM
COCCCCCCOc1cc2ccc(-c3ccc(C(=O)O)cc3)cc2cc1C12CC3CC(CC(C3)C1)C2 [Example 39, 4-[7-(1-adamantyl)-6-methoxyhexyloxy-2-naphthyl]benzoic acid] | 450 | 
COCCOCOc1cc2ccc(-c3ccc(C(=O)O)cc3)cc2cc1C12CC3CC(CC(C3)C1)C2 [Example 3, 4-[7-(1-adamantyl)-6-methoxyethoxymethoxy-2-naphthyl]benzoic acid] | 2 | 
